Measurements taken from the supplement of paper PMC11208160.

Test: recombinant UMI read abundance after kanamycin selection (control-corrected) (log10(CPM+1)); higher = more efficient recombination; extreme values may be limits of the assay; sequences stand for … in AGTGCAGAGAAAATCGGCCAGTTTTCTCTGCCTGCAGTCCGCATGCCGTGGGACCCCTTGGGTTCTAACCTGTTGCCTAGATTTATGCAGCGGACTGCCTTTCTCCCAAAGTGATAAACCGG…AGGTTGGTTTCACT; site = the 11-nt donor
How it was run: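 After plating on IPTG (0.07 mM) plus kanamycin, or unselected, in two replicates, recombinant UMIs were PCR-amplified across the donor–target junction and sequenced. The cells were Escherichia coli co-electroporated with a UMI-tagged donor and donor-binding-loop pair library and a target plasmid with a fixed target and T7-inducible IS621 bridge recombinase. Values are log10(CPM+1), with CPM averaged over replicates and scaled by control-derived factors.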
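Further: IS621 bridge recombinase in Escherichia coli cells against a fixed T5 target plasmid.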

| Sequence | recombinant UMI read abundance (log10) |
| --- | --- |
| CCTCTCTCATGGACCGGTTTTCCCGGTAATCCGTATTTGTA (site CGTCTCTCTTA) | 0 |
| CCTCTCTCATGGACCGGTTTTCCCGGTAATCCGTATTTGTA (site CTTCTCTCTTA) | 0.0036 |
| CCTGACACATGGACCGGTTTTCCCGGTAATCCGTATTTGTC (site CCTGACACTGA) | 0 |
| CCTGCAGCATGGACCGGTTTTCCCGGTAATCCGTATTTGTG (site CCTGCAGCTCA) | 0.0206 |
| CCTGCCGCATGGACCGGTTTTCCCGGTAATCCGTATTTGCC (site CCTGCCGCTGG) | 0 |
| CCTGGTCCATGGACCGGTTTTCCCGGTAATCCGTATTTGCA (site CCAGGTCCTTG) | 0 |
| CCTGGTCCATGGACCGGTTTTCCCGGTAATCCGTATTTGCA (site CCCGGTCCTTG) | 0.00677 |
| CCTGGTCCATGGACCGGTTTTCCCGGTAATCCGTATTTGCA (site CCGGGTCCTTG) | 0 |
| CCTGGTCCATGGACCGGTTTTCCCGGTAATCCGTATTTGCA (site CCTGGTCCTTG) | 0 |
| CCTTAGGCATGGACCGGTTTTCCCGGTAATCCGTATTTGTT (site CCTTAGGCTAA) | 0.0132 |
| CCTTATACATGGACCGGTTTTCCCGGTAATCCGTATTTGGC (site CCTAATACTGC) | 0 |
| CCTTATACATGGACCGGTTTTCCCGGTAATCCGTATTTGGC (site CCTCATACTGC) | 0.021 |
| CCTTATACATGGACCGGTTTTCCCGGTAATCCGTATTTGGC (site CCTGATACTGC) | 0 |
| CCTTATACATGGACCGGTTTTCCCGGTAATCCGTATTTGGC (site CCTTATACTGC) | 0 |
| CCTTGAACATGGACCGGTTTTCCCGGTAATCCGTATTTGCT (site CCTTGAACTAG) | 0 |
| CCTTGCCCATGGACCGGTTTTCCCGGTAATCCGTATTTGAT (site ACTTGCCCTAT) | 0.00442 |
| CCTTGCCCATGGACCGGTTTTCCCGGTAATCCGTATTTGAT (site CCTTGCCCTAT) | 0.00286 |
| CCTTGCCCATGGACCGGTTTTCCCGGTAATCCGTATTTGAT (site GCTTGCCCTAT) | 0.00408 |
| CCTTGCCCATGGACCGGTTTTCCCGGTAATCCGTATTTGAT (site TCTTGCCCTAT) | 0.00903 |

| Sequence | recombinant UMI read abundance (log10) |
| --- | --- |
| CGAACATCATGGACCGGTTTTCCCGGTAATCCGTATTTGGA (site CGAACATCTTC) | 1.93 |
| CGAACGTCATGGACCGGTTTTCCCGGTAATCCGTATTTGCG (site CGAACGTCTCG) | 2.37 |
| CGAAGATCATGGACCGGTTTTCCCGGTAATCCGTATTTGCT (site CGAAGATCTAG) | 1.51 |
| CGAAGATCATGGACCGGTTTTCCCGGTAATCCGTATTTGCT (site CGATCATCTAG) | 0 |
| CGAAGGACATGGACCGGTTTTCCCGGTAATCCGTATTTGGT (site CGAAGGACTAC) | 1.65 |
| CGAAGTGCATGGACCGGTTTTCCCGGTAATCCGTATTTGCC (site CGAAGTGCTGG) | 0.751 |
| CGAAGTGCATGGACCGGTTTTCCCGGTAATCCGTATTTGTT (site CGAAGTGCTAA) | 2.57 |
| CGAATCCCATGGACCGGTTTTCCCGGTAATCCGTATTTGCA (site CGAATCCCTTG) | 1.55 |
| CGAATTACATGGACCGGTTTTCCCGGTAATCCGTATTTGGC (site CGAATTACTGC) | 1.14 |
| CGAATTCCATGGACCGGTTTTCCCGGTAATCCGTATTTGCG (site CGAATTCCTCG) | 0.935 |
| CGAATTCCATGGACCGGTTTTCCCGGTAATCCGTATTTGTT (site CGAATTCCTAA) | 0.99 |
| CGAATTCCATGGACCGGTTTTCCCGGTAATCCGTATTTGTT (site CGGAATCCTAA) | 0 |
| CGACACGCATGGACCGGTTTTCCCGGTAATCCGTATTTGTT (site CGACACGCTAA) | 2 |
| CGACCATCATGGACCGGTTTTCCCGGTAATCCGTATTTGGC (site CGACCATCTGC) | 3.07 |
| CGACCGTCATGGACCGGTTTTCCCGGTAATCCGTATTTGCA (site CGACCGTCTTG) | 3.11 |
| CGAGCAGCATGGACCGGTTTTCCCGGTAATCCGTATTTGCT (site CAAGCAGCTAG) | 1.13 |
| CGAGCAGCATGGACCGGTTTTCCCGGTAATCCGTATTTGCT (site CCAGCAGCTAG) | 0.0072 |
| CGAGCAGCATGGACCGGTTTTCCCGGTAATCCGTATTTGCT (site CGAGCAGCTAG) | 2.13 |
| CGAGCAGCATGGACCGGTTTTCCCGGTAATCCGTATTTGCT (site CGATCATCTAG) | 0 |
